{"source": "patent US20240058268A1", "about": "“METHODS OF TREATING SKIN DISORDERS” (priority 2021, published 2024)", "test_system": "acne papule biopsies of subjects with moderate inflammatory acne of the back", "assay": "Large scale gene expression profiling of skin biopsies (Affymetrix U133 Plus 2.0)", "type": "in vivo, human", "experimental": "Subjects with moderate inflammatory acne of the back were treated with a 0.005% trifarotene or vehicle cream on dedicated back areas for 27 days, and 4 biopsies were collected on each subject (non-involved skin, acne papule, Trifarotene and vehicle treated site). Large scale gene expression profiling of the biopsies was performed using Affymetrix technology, and treatment specific gene expression profiles were generated using statistical modeling. Clinical investigations were conducted in accordance with the Declaration of Helsinki principles, and the ICH Guideline for Good Clinical Practice. The clinical study received approval from the ethics committee of Brest, France (reference CPP Quest 6-755). This was a post-hoc analysis of data collected from 9 patients aged 18-35 with acne vulgaris (EUDRACT No. 2012-001943-36). In the 4-week open-label clinical study, subjects received once-daily applications of trifarotene 0.005% cream and vehicle cream on the back. Each patient had four biopsies performed, 1 from skin without visible acne lesion (non-involved skin) and three at the site of acne papule, with the following timing: one prior to treatment (day 0), one after vehicle treatment (day 27), and one after trifarotene treatment (day 27). Aubert et al, Br J Dermatol., 2018 August; 179(2):442-456. Samples were collected for large-scale gene expression profiling. Subjects provided written informed consent prior to biopsies. Subjects with moderate inflammatory acne on the back at the screening visit, defined by scores of between 2 and 4 for the whole back, with at least one area scored at 2 and a maximum of three nodules using the ECLA (Acne Lesion Score Scale) scale, were included in the study. Each subject had at least 2 papules 48 hours old, one on each half of the back. Subjects were excluded if they had active skin disease or inflammation other than acne, underlying known conditions which could interfere with study results, history of allergy to local anesthetics and/or topical antiseptics, history of bleeding disorder, or pregnancy/lactation (females). Predefined washout periods were mandated for acne treatments, immunosuppressants, immunomodulators, systemic corticosteroids, and isotretinoin. Study personnel applied treatment to patients' backs with trifarotene cream (right side) or vehicle (left side) once daily for 28 days excluding weekends (n=19 applications). Biopsies of nonlesional areas of trifarotene- and vehicle-treated skin were made under local anaesthesia at day 27 as shown in FIG. 1. Biopsies were stored in RNAlater TissueProtect Tubes (Qiagen, Les Ulis, France). Bioinformatics Analysis: Data analysis was performed using Array Studio software (Omicsoft Corporation, Cary, NC, USA). Affymetrix U133 Plus 2.0 chips (GeneChipTM, Santa Clara, CA, USA) were normalized using the multi-array average (RMA) method (See […], et al. Exploration, normalization, and summaries of high density oligonucleotide array probe level data. Biostatistics, 2003; 4:249-64.) Low expression probe-sets were filtered. Only Affymetrix identifiers with expression ≥2^6 in at least 5 samples in one condition were selected for further statistical analysis, resulting in data for 36245 out of the 54675 probe-sets present on the HG U133 Plus 2.0 array. Mean expression levels were obtained by calculating the geometric means of the RMA-normalized data. A linear model was fitted to the normalized data, and statistical testing of the comparisons of interest were performed using a moderated t-test. Paired-test was used when applicable. P values were adjusted for multiple testing using the Benjamini-Hochberg false discovery rate (FDR) method (See e.g., Benjamini Y, et al., Controlling the false discovery rate in behavior genetics research. Behav Brain Res, 2001; 125:279-84). Candidate differentially expressed genes were selected using a combination of fold-change and […]; genes with absolute fold change>2 and FDA<0.05 were considered as candidate differentially expressed genes. […]", "key": {"[1]": {"settings": "lesional skin after 0.005% cream (day 27) vs before treatment"}}, "data": [{"molecule": "CC(C)(C)c1cc(-c2cc(-c3ccc(C(=O)O)cc3)ccc2OCCO)ccc1N1CCCC1", "note": "[Trifarotene, 3″-tert-Butyl-4′-(2-hydroxy-ethoxy)-4″-pyrrolidin-1-yl-[1,1′,3′,1″ ]terphenyl-4-carboxylic acid]", "values": [{"measurement": "number of genes upregulated among the 67 genes regulated", "setting": "LINC01224, INA, GABRA4, PXMP4", "value": "four"}, {"measurement": "number of genes uniquely downregulated (not in spontaneously resolving signature)", "setting": "absolute fold change>2, genes of inflammatory cell infiltration and extracellular matrix reorganization", "value": 67, "unit": "genes"}, {"measurement": "number of genes in common between acne lesion profile and trifarotene-treated lesion profile, all reversed", "setting": "acne signature vs trifarotene signature", "value": 354, "unit": "genes"}, {"measurement": "Fold Change R3 vs L1: ADAM12 (226777_at)", "setting": "[1]", "value": "−3.84"}, {"measurement": "Fold Change R3 vs L1: ADAMDEC1 (206134_at)", "setting": "[1]", "value": "−6.29"}, {"measurement": "Fold Change R3 vs L1: APELA (1559280_a_at)", "setting": "[1]", "value": "−2.70"}, {"measurement": "Fold Change R3 vs L1: ARHGAP9 (224451_x_at)", "setting": "[1]", "value": "−2.14"}, {"measurement": "Fold Change R3 vs L1: BCAT1 (214452_at)", "setting": "[1]", "value": "−3.66"}, {"measurement": "Fold Change R3 vs L1: BIRC3 (210538_s_at)", "setting": "[1]", "value": "−2.23"}, {"measurement": "Fold Change R3 vs L1: CBLN2 (242301_at)", "setting": "[1]", "value": "−2.61"}, {"measurement": "Fold Change R3 vs L1: CCDC71L (229521_at)", "setting": "[1]", "value": "−2.26"}, {"measurement": "Fold Change R3 vs L1: CCNA1 (205899_at)", "setting": "[1]", "value": "−3.55"}, {"measurement": "Fold Change R3 vs L1: CD37 (204192_at)", "setting": "[1]", "value": "−2.13"}, {"measurement": "Fold Change R3 vs L1: CD69 (209795_at)", "setting": "[1]", "value": "−2.10"}, {"measurement": "Fold Change R3 vs L1: CD80 (1554519_at)", "setting": "[1]", "value": "−4.03"}, {"measurement": "Fold Change R3 vs L1: CD84 (230391_at)", "setting": "[1]", "value": "−2.57"}, {"measurement": "Fold Change R3 vs L1: CLEC4A (221724_s_at)", "setting": "[1]", "value": "−2.32"}, {"measurement": "Fold Change R3 vs L1: CTLA4 (236341_at)", "setting": "[1]", "value": "−2.54"}, {"measurement": "Fold Change R3 vs L1: CYTH4 (219183_s_at)", "setting": "[1]", "value": "−2.36"}, {"measurement": "Fold Change R3 vs L1: DMXL2 (215761_at)", "setting": "[1]", "value": "−2.35"}, {"measurement": "Fold Change R3 vs L1: EVI2B (211742_s_at)", "setting": "[1]", "value": "−2.35"}, {"measurement": "Fold Change R3 vs L1: FERMT3 (223303_at)", "setting": "[1]", "value": "−2.12"}, {"measurement": "Fold Change R3 vs L1: FNDC3B (229865_at)", "setting": "[1]", "value": "−2.35"}, {"measurement": "Fold Change R3 vs L1: GABRA4 (208463_at)", "setting": "[1]", "value": 2.26}, {"measurement": "Fold Change R3 vs L1: GASK1B (219872_at)", "setting": "[1]", "value": "−2.30"}, {"measurement": "Fold Change R3 vs L1: GLIPR1 (204222_s_at)", "setting": "[1]", "value": "−2.48"}, {"measurement": "Fold Change R3 vs L1: GLIPR2 (225604_s_at)", "setting": "[1]", "value": "−2.24"}, {"measurement": "Fold Change R3 vs L1: GLIS3 (229435_at)", "setting": "[1]", "value": "−3.07"}, {"measurement": "Fold Change R3 vs L1: GPRIN3 (1556698_a_at)", "setting": "[1]", "value": "−2.27"}, {"measurement": "Fold Change R3 vs L1: HLA-DPA1 (213537_at)", "setting": "[1]", "value": "−2.14"}, {"measurement": "Fold Change R3 vs L1: HP (206697_s_at)", "setting": "[1]", "value": "−2.99"}, {"measurement": "Fold Change R3 vs L1: IL2RG (204116_at)", "setting": "[1]", "value": "−2.28"}, {"measurement": "Fold Change R3 vs L1: IL18BP (222868_s_at)", "setting": "[1]", "value": "−2.37"}, {"measurement": "Fold Change R3 vs L1: INA (204465_s_at)", "setting": "[1]", "value": 2.34}, {"measurement": "Fold Change R3 vs L1: IRF8 (204057_at)", "setting": "[1]", "value": "−2.02"}, {"measurement": "Fold Change R3 vs L1: ITGAX (210184_at)", "setting": "[1]", "value": "−2.85"}, {"measurement": "Fold Change R3 vs L1: KLHL6 (1555275_a_at)", "setting": "[1]", "value": "−3.05"}, {"measurement": "Fold Change R3 vs L1: LINC01224 (233142_at)", "setting": "[1]", "value": 3.51}, {"measurement": "Fold Change R3 vs L1: LOXL2 (202998_s_at)", "setting": "[1]", "value": "−2.18"}, {"measurement": "Fold Change R3 vs L1: LPXN (216250_s_at)", "setting": "[1]", "value": "−2.25"}, {"measurement": "Fold Change R3 vs L1: LY86 (205859_at)", "setting": "[1]", "value": "−2.18"}, {"measurement": "Fold Change R3 vs L1: MMP12 (204580_at)", "setting": "[1]", "value": "−11.13"}, {"measurement": "Fold Change R3 vs L1: MMP13 (205959_at)", "setting": "[1]", "value": "−4.3"}, {"measurement": "Fold Change R3 vs L1: MMP19 (204575_s_at)", "setting": "[1]", "value": "−2.71"}, {"measurement": "Fold Change R3 vs L1: MSR1 (214770_at)", "setting": "[1]", "value": "−2.45"}, {"measurement": "Fold Change R3 vs L1: NCEH1 (225847_at)", "setting": "[1]", "value": "−2.70"}, {"measurement": "Fold Change R3 vs L1: NRP2 (223510_at)", "setting": "[1]", "value": "−2.46"}, {"measurement": "Fold Change R3 vs L1: P2RY8 (229686_at)", "setting": "[1]", "value": "−2.23"}, {"measurement": "Fold Change R3 vs L1: P2RY10 (236280_at)", "setting": "[1]", "value": "−2.05"}, {"measurement": "Fold Change R3 vs L1: PAPSS2 (203060_s_at)", "setting": "[1]", "value": "−2.60"}, {"measurement": "Fold Change R3 vs L1: PARVG (223562_at)", "setting": "[1]", "value": "−2.23"}, {"measurement": "Fold Change R3 vs L1: PTHLH (211756_at)", "setting": "[1]", "value": "−2.55"}, {"measurement": "Fold Change R3 vs L1: PTPN22 (236539_at)", "setting": "[1]", "value": "−2.27"}, {"measurement": "Fold Change R3 vs L1: PTPRO (208121_s_at)", "setting": "[1]", "value": "−2.26"}, {"measurement": "Fold Change R3 vs L1: PXMP4 (238746_at)", "setting": "[1]", "value": 2.14}, {"measurement": "Fold Change R3 vs L1: RAC2 (207419_s_at)", "setting": "[1]", "value": "−2.03"}, {"measurement": "Fold Change R3 vs L1: RHOH (204951_at)", "setting": "[1]", "value": "−2.57"}, {"measurement": "Fold Change R3 vs L1: SELP (206049_at)", "setting": "[1]", "value": "−2.10"}, {"measurement": "Fold Change R3 vs L1: SELPLG (209879_at)", "setting": "[1]", "value": "−2.06"}, {"measurement": "Fold Change R3 vs L1: SH2B3 (203320_at)", "setting": "[1]", "value": "−2.26"}, {"measurement": "Fold Change R3 vs L1: SIRPB1 (206934_at)", "setting": "[1]", "value": "−2.45"}, {"measurement": "Fold Change R3 vs L1: SLAMF7 (219159_s_at)", "setting": "[1]", "value": "−2.49"}, {"measurement": "Fold Change R3 vs L1: SLC6A14 (219795_at)", "setting": "[1]", "value": "−2.04"}, {"measurement": "Fold Change R3 vs L1: SNAP25 (202508_s_at)", "setting": "[1]", "value": "−2.40"}, {"measurement": "Fold Change R3 vs L1: TRG-AS1 (239237_at)", "setting": "[1]", "value": "−2.33"}, {"measurement": "Fold Change R3 vs L1: TYROBP (204122_at)", "setting": "[1]", "value": "−2.39"}, {"measurement": "Fold Change R3 vs L1: VCAN (215646_s_at)", "setting": "[1]", "value": "−2.43"}, {"measurement": "Fold Change R3 vs L1: XCL1 (206366_x_at)", "setting": "[1]", "value": "−2.02"}]}]}
